The target of experiment [1] is Ribosomal protein S6 kinase alpha-2 (Homo sapiens) (UniProt Q15349). The experiment in a line: Inhibition of T7 bacteriophage fused human N-terminal RSK3 Kinase domain-1 at 10 uM by KINOMEscan analysis relative to control.
The target of experiment [2] is Ribosomal protein S6 kinase alpha-6 (Homo sapiens) (UniProt Q9UK32). The experiment in a line: Inhibition of T7 bacteriophage fused human N-terminal RSK4 Kinase domain-1 at 10 uM by KINOMEscan analysis relative to control.
Experiment [3] deals with Ribosomal protein S6 kinase beta-1 (Homo sapiens) (UniProt P23443). Put plainly: Inhibition of T7 bacteriophage fused human S6K1 at 10 uM by KINOMEscan analysis relative to control.
Chain of Ribosomal protein S6 kinase beta-1 (Homo sapiens) (P23443 whole entry, looked up, the tested form may be a part): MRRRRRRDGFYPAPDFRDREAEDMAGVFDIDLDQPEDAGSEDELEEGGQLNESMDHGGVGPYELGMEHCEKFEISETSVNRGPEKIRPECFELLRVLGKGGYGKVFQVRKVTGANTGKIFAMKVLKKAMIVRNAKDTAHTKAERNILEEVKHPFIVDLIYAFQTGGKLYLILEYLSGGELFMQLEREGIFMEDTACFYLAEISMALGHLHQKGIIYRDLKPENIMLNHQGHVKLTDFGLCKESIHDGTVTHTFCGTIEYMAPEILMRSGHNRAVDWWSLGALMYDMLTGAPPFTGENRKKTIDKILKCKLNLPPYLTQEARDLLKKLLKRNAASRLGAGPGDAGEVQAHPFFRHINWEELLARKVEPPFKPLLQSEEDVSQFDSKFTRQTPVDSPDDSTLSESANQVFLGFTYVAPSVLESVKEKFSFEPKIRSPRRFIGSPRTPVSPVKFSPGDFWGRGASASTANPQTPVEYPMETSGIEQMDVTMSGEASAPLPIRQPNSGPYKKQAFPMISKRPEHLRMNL
The target of experiment [4] is STE20/SPS1-related proline-alanine-rich protein kinase (Homo sapiens) (UniProt Q9UEW8). The experiment in a line: Inhibition of T7 bacteriophage fused human STK39 at 10 uM by KINOMEscan analysis relative to control.
For experiment [5], the target named is T1, Serine/threonine-protein kinase TBK1 (Homo sapiens) (UniProt Q9UHD2).
T1 sequence (whole entry): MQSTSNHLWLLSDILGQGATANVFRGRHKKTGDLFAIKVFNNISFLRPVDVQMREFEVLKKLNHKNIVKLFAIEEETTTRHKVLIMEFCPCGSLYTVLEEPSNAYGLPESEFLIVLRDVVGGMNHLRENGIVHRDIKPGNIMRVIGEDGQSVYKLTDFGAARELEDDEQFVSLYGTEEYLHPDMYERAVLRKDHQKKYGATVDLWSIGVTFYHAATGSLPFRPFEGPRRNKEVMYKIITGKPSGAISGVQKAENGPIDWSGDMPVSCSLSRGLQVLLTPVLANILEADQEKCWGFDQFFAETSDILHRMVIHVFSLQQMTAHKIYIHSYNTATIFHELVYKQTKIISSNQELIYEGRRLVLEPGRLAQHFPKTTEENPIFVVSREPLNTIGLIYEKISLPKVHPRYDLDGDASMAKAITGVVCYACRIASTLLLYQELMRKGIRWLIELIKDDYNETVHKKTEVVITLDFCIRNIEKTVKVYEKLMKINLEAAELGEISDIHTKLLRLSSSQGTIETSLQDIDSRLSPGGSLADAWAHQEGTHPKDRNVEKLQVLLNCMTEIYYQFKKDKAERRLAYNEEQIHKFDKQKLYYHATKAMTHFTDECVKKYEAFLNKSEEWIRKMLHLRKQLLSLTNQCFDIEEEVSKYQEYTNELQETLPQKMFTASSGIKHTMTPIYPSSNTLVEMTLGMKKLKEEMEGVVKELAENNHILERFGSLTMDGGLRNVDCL
Put plainly: Inhibition of T7 bacteriophage fused human TBK1 at 10 uM by KINOMEscan analysis relative to control.

For experiment [6], the target named is Dual specificity testis-specific protein kinase 1 (Homo sapiens) (UniProt Q15569). Put plainly: Inhibition of T7 bacteriophage fused human TESK1 at 10 uM by KINOMEscan analysis relative to control.
For experiment [7], the target named is Tyrosine-protein kinase receptor Tie-1 (Homo sapiens) (UniProt P35590). The experiment in a line: Inhibition of T7 bacteriophage fused human TIE1 at 10 uM by KINOMEscan analysis relative to control.
The target of experiment [8] is Angiopoietin-1 receptor (Homo sapiens) (UniProt Q02763). The experiment in a line: Inhibition of T7 bacteriophage fused human TIE2 at 10 uM by KINOMEscan analysis relative to control.
The target in experiment [9] is Activated CDC42 kinase 1 (Homo sapiens) (UniProt Q07912). Put plainly: Inhibition of T7 bacteriophage fused human TNK2 at 10 uM by KINOMEscan analysis relative to control.
Experiment [10] addresses Non-receptor tyrosine-protein kinase TYK2 (Homo sapiens) (UniProt P29597). The experiment in a line: Inhibition of T7 bacteriophage fused human TYK2 JH2 pseudokinase domain at 10 uM by KINOMEscan analysis relative to control.
For experiment [11], the target named is T2, Tyrosine-protein kinase receptor TYRO3 (Homo sapiens) (UniProt Q06418).
T2 sequence (whole entry): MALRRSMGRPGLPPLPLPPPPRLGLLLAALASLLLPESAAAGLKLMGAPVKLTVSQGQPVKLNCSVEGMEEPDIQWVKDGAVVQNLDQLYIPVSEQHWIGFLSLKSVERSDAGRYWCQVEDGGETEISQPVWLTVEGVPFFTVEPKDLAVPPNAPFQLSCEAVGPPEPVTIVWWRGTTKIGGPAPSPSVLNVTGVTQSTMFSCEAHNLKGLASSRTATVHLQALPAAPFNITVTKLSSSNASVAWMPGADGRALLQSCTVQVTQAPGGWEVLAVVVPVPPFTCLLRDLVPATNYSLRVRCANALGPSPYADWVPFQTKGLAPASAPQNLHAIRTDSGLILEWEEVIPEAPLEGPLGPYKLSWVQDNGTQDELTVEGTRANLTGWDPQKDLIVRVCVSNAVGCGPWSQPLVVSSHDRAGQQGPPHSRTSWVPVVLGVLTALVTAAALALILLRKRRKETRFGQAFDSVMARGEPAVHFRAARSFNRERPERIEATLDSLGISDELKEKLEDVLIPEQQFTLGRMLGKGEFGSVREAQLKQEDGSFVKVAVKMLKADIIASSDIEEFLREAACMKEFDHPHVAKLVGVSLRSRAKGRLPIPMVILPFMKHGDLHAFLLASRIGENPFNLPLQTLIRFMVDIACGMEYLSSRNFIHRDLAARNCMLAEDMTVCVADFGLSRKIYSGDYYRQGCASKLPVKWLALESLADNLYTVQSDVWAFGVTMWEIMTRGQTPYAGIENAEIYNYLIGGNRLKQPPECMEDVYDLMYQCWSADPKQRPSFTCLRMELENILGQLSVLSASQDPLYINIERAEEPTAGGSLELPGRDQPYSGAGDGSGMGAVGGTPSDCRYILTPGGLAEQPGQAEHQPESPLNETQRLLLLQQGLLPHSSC
The experiment in a line: Inhibition of T7 bacteriophage fused human TYRO3 at 10 uM by KINOMEscan analysis relative to control.

In experiment [12] the target is Vascular endothelial growth factor receptor 2 (Homo sapiens) (UniProt P35968). Put plainly: Inhibition of T7 bacteriophage fused human VEGFR2 at 10 uM by KINOMEscan analysis relative to control.
Chain of Vascular endothelial growth factor receptor 2 (Homo sapiens) (P35968 whole entry, the tested form may be a part): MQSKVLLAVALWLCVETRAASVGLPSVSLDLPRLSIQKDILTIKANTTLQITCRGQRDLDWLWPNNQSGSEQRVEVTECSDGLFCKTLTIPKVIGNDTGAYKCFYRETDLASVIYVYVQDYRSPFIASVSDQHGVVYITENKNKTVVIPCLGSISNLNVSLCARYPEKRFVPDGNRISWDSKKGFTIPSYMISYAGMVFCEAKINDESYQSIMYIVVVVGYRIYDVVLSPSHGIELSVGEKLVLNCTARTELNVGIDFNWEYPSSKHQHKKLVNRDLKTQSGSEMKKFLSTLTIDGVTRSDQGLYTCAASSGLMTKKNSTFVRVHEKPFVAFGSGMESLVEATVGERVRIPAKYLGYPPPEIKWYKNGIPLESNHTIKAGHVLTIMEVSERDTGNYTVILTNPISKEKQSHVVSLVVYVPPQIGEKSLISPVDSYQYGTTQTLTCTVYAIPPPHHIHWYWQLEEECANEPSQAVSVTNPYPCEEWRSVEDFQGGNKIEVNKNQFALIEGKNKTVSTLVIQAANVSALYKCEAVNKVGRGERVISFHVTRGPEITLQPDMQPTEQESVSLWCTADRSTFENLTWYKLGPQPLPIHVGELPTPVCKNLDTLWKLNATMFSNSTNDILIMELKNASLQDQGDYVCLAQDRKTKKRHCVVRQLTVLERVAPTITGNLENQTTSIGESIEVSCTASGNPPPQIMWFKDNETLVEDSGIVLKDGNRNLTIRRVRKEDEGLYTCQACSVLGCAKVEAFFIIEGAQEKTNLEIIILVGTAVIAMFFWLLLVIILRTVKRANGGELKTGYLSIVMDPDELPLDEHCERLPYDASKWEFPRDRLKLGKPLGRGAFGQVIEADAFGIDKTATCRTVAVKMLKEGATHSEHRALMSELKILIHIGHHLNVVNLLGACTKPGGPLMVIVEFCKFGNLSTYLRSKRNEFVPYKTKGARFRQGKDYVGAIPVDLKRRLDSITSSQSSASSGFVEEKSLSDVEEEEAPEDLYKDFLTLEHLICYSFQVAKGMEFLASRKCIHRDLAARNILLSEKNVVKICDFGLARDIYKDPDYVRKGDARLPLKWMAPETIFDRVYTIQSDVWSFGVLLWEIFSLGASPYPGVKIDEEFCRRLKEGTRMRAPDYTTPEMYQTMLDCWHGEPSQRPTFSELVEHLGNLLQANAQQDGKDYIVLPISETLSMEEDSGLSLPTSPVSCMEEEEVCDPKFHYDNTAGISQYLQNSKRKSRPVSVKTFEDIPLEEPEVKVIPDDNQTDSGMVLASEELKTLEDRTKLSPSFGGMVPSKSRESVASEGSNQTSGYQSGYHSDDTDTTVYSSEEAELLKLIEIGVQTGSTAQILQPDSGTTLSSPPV
Experiment [13] has as its target Wee1-like protein kinase 2 (Homo sapiens) (UniProt P0C1S8). The experiment in a line: Inhibition of T7 bacteriophage fused human WEE2 at 10 uM by KINOMEscan analysis relative to control.
Experiment [14] deals with Serine/threonine-protein kinase 32A (Homo sapiens) (UniProt Q8WU08). Put plainly: Inhibition of T7 bacteriophage fused human YANK1 at 10 uM by KINOMEscan analysis relative to control.
Chain of Serine/threonine-protein kinase 32A (Homo sapiens) (Q8WU08 whole entry, the tested form may be a part): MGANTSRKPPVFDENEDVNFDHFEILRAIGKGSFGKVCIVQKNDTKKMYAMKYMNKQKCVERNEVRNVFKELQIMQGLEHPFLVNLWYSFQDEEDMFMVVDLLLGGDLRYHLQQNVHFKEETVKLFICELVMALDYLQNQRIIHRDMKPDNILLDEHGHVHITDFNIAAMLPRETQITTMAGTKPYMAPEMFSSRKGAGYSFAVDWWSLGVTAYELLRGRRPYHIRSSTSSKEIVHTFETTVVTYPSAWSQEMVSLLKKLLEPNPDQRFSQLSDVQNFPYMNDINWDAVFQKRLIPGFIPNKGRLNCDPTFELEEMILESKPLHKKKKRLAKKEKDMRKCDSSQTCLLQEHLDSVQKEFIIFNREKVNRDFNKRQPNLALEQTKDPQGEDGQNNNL
For experiment [15], the target named is Serine/threonine-protein kinase 32B (Homo sapiens) (UniProt Q9NY57). The experiment in a line: Inhibition of T7 bacteriophage fused human YANK2 at 10 uM by KINOMEscan analysis relative to control.
Chain of Serine/threonine-protein kinase 32B (Homo sapiens) (Q9NY57 whole entry, the tested form may be a part): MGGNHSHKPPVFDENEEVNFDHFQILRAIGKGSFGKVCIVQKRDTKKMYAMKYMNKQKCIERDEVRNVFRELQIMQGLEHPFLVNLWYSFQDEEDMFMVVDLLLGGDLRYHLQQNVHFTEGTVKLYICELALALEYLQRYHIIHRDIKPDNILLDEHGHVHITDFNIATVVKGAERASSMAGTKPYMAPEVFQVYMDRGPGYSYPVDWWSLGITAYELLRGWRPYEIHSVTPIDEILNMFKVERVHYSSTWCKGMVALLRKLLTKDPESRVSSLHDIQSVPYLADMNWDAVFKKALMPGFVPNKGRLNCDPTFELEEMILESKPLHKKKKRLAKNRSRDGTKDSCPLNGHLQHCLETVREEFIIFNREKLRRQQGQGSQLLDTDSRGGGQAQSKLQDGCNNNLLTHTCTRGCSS
Experiment [16] has as its target Serine/threonine-protein kinase 32C (Homo sapiens) (UniProt Q86UX6). The experiment in a line: Inhibition of T7 bacteriophage fused human YANK3 at 10 uM by KINOMEscan analysis relative to control.

Molecules are shown by their SMILES.

Chain of Wee1-like protein kinase 2 (Homo sapiens) (P0C1S8 whole entry, looked up, the tested form may be a part): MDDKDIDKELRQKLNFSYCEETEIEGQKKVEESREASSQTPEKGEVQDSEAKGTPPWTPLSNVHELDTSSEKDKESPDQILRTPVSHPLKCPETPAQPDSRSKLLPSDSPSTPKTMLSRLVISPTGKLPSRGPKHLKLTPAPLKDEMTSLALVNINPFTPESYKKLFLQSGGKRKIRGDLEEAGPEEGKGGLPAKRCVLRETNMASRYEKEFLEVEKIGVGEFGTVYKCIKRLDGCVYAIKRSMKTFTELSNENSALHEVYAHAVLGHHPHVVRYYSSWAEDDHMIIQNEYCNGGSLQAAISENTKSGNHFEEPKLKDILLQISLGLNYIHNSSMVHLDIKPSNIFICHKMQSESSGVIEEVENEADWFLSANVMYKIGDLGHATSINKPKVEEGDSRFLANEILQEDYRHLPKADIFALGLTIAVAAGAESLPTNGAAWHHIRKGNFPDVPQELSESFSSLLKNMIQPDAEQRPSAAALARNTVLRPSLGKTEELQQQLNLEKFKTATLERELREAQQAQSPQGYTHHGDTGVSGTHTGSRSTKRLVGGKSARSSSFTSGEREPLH
Chain of Non-receptor tyrosine-protein kinase TYK2 (Homo sapiens) (P29597 whole entry, the tested form may be a part): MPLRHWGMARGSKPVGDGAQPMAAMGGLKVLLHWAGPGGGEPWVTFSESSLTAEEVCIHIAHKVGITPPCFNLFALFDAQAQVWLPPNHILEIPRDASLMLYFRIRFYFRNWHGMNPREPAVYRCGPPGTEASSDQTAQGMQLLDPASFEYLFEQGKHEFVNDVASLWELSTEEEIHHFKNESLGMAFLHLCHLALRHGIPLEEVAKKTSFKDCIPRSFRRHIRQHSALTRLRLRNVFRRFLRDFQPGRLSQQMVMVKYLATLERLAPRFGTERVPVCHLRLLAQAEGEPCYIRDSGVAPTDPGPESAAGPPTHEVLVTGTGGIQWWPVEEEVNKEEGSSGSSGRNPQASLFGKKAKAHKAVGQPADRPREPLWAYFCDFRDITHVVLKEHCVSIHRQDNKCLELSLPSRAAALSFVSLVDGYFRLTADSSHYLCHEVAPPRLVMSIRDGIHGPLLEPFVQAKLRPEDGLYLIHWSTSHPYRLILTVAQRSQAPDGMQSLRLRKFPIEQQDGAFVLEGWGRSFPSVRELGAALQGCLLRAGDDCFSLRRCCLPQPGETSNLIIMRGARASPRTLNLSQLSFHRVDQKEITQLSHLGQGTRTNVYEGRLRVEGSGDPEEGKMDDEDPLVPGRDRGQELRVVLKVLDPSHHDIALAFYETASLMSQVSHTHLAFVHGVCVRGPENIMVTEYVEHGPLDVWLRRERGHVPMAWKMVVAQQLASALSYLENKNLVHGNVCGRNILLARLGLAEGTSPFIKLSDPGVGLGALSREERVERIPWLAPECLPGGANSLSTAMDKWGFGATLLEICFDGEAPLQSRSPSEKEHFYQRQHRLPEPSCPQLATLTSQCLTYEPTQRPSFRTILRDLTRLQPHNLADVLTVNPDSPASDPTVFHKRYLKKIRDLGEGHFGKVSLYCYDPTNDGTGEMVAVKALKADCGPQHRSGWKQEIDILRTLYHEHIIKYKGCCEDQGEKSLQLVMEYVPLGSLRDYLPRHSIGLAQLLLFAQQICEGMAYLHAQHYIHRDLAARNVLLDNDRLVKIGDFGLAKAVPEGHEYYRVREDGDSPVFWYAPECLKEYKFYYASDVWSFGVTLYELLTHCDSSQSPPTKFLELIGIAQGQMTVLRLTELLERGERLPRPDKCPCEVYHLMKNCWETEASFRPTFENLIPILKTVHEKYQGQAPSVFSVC
Chain of Serine/threonine-protein kinase 32C (Homo sapiens) (Q86UX6 whole entry, the tested form may be a part): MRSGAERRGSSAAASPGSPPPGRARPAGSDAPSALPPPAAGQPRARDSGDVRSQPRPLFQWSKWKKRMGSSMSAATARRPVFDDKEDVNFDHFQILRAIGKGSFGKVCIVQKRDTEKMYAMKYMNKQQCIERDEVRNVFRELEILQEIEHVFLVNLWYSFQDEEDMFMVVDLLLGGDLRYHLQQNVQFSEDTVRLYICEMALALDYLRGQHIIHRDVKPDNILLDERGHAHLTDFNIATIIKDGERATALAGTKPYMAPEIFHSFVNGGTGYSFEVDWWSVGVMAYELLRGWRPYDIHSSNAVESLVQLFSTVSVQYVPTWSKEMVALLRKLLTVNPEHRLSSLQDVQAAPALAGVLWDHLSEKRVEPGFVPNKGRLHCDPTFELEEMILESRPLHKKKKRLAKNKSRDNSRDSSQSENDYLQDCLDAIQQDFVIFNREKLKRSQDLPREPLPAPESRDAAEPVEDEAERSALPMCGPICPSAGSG

As for `COc1cc(N2CCC(N3CCN(C)CC3)CC2)ccc1Nc1ncc2c(n1)N(C)c1ccccc1C(=O)N2C`, the inhibition in experiment [1] came out at 83%; in [2], 92%; in [3], 100%; in [4] it was 39%; in experiment [5] it was 97%; in experiment [6] it was 82%. Further, the inhibition was found to be 100% in experiment [7]; 100% in [8]; 18% in experiment [9]; 100% in experiment [10]; 100% in experiment [11]; 84% in experiment [12]. Moreover, the inhibition in experiment [13], in [14], in experiment [15] and in experiment [16] was 100% throughout.
With `COc1cc(C(=O)N2CCC(N3CCN(C)CC3)CC2)ccc1Nc1ncc2c(n1)N(C1CCCC1)c1ccccc1C(=O)N2C`, the inhibition in [1], in experiment [2], in experiment [3], in experiment [4], in experiment [5] and in experiment [6] was 100% each time. The inhibition worked out at 100% in experiment [7]; 100% in experiment [8]; 35% in experiment [9]; 100% in [10]; 100% in experiment [11]; 100% in experiment [12]. Moreover, the inhibition in experiment [13], in [14], in [15] and in [16] was 100% each time.
On to `CCOc1cc(C(=O)N2CCC(N3CCN(C)CC3)CC2)ccc1Nc1ncc2c(n1)N(C1CCCC1)c1ccccc1C(=O)N2C`, for which the inhibition in [1], in experiment [2], in experiment [3], in [4], in experiment [5] and in experiment [6] was 100% in each case. Moreover, the inhibition in experiment [7] was 100%; in experiment [8], 100%; in [9] it was 80%; in experiment [10] it was 100%; in experiment [11], 100%; in experiment [12] it was 100%. In addition, the inhibition in experiment [13], in [14], in experiment [15] and in experiment [16] was 100% in each case.

Source of the values: ChEMBL document CHEMBL5678810.
